# Results as given in US20080155704A1, “Methods and Compositions for Determining in vivo Activity of BiP” (King's College London, priority 2006, published 2008).
# Columns and labels:
# [1] = test system: autologous responder T cells; assay: Regulatory T cell activity after co-culture with DC(BiP): responder T cell proliferation to anti-CD3; type: cell-based, human
# Description: FIG. 12: Co-culture with BiP-treated dendritic cells (DC) leads T cells to have regulatory function. After 4d pre-incubation with either autologous or allogeneic DC, or DC(BiP), T cells were washed and set up in autologous cultures with irradiated peripheral blood mononuclear cells (PBMC) and responder T cells (1:1:1 ratio) (105 cells each/well) in the presence or absence of anti-CD3 antibody (1/2000 dilution). […] (B) a representative experiment showing an autologous experiment using Δ counts per minute (Δcpm) (stimulated-unstimulated cpm) following stimulation with anti-CD3 antibody to irradiated PBMC (irMC) or responder T cells (rT) alone and cultures with irMC+rT+T cells prestimulated (pT) by autologous DC populations as indicated; (C) mean ±standard deviation of unstimulated and stimulated cultures from a representative experiment where autologous irMC+rT+pT, previously cocultured with allogeneic DC populations as indicated, were present in ratio 1:1:1.
# Purified T cells (>95% T cells) (2.10^6/well) either autologous or allogeneic were cultured in the absence or presence of irradiated DC populations in 24-well flat-bottomed plates at a IDC: 10 T cell ratio for 4 days. […]
# [2] = test system: splenocytes and lymph node cells; assay: Intravenous injection of BiP into DBA mice, splenocytes and lymph node cells analysed; type: in vivo, mouse
# Description: The biomarkers were investigated in two situations: 1) when 50.10^6 human peripheral blood mononuclear cells were injected intraperitoneally, with or without BiP (100 μg), into a mouse and the cells were harvested from the peritoneum 11 days later; or (2) BiP (200 μg) was injected intravenously into a mouse and the spleens and lymph nodes removed 11 days later.
# Mice were sacrificed at the end of the experiment and the spleens and lymph nodes removed. The spleens and lymph nodes were then gently pushed through a fine mesh to produce a single cell suspension. The cells were then either set up in culture or stained as for human cells following the protocol below.
# IF staining of mouse cells was as described for human cells above.
# Mice were given a single dose of BiP and left for 11 days before they were sacrificed and their spleens and lymph nodes removed for analysis. The splenocytes and lymph node cells were pooled and used in immunofluorescence and flow cytometry studies. They were also set up in a simple recall antigen proliferation study to check that BiP had been successfully administered at time-point zero.
# Cells were examined for: CD3, CD4, CD8, CD25, CD122, CCR4, intracellular CTLA-4 and cells actively producing IL-10 and interferon (IFN)γ.
# Thus reduction of IFN (decreased IFN production) is an excellent marker of BiP function in vivo.
# IL-8 = IL-8 in supernatants of PBMC from rheumatoid arthritis patients (MSD multicytokine array); type: cell-based, human; conditions: PBMC of RA patients on methotrexate, BiP 20 μg/ml, 96 h, 16 paired samples, p=0.0001
# Description: Peripheral blood mononuclear cells (PBMC) were separated from heparinised blood taken from patients with rheumatoid arthritis being treated with methotrexate. PBMC were either left unstimulated or stimulated with BiP (20 μg/ml). Supernatants were taken at 96 h, aliquoted and stored at −80° C. until required.
# Supernatants from unstimulated or BiP stimulated cultures were analysed in a multicytokine array (MSD). The results from 16 paired samples are shown as median and 95 percent confidence limits.
# [3] = BiP 200 μg/mouse i.v., 11 days, n=3
substance,measurement,setting,value
BiP: 78 kD endoplasmic reticulum chaperone protein as disclosed in WO 00/21995; recombinant human protein,% inhibition of responder T cell proliferation to anti-CD3 antibody,"[1]; T cells from 4d co-culture with allogeneic DC(BiP), n=3",28.7±13.3 % inhibition
same,% inhibition of responder T cell proliferation to anti-CD3 antibody,"[1]; T cells from 4d co-culture with autologous DC(BiP), n=5",63.8±13.7 % inhibition
same,intracellular CTLA-4,"[2]; BiP 200 μg/mouse i.v., 11 days",Increased intracellular CTLA-4
same,IL-10 producing cells,[2]; [3],6.1±1.3%
same,cells producing IFN gamma after stimulation by concanavalin A,[2]; [3],3.9±1.7%
same,% of CD8CD122+ cells,"[2]; BiP 200 μg/mouse i.v., 11 days, pooled splenocytes and lymph node cells, n=3",26.3±3.7%
same,IFN production by cells cultured overnight with con A,[2]; cells from mice given BiP 11 days previously (FIG. 5),significant reduction in IFN production
same,IL-8 production,IL-8,significantly less IL-8
